Measurements reported in patent US20050192314A1, “Urea derivatives as C-kit modulators” (Ambit Biosciences Corporation, priority 2003, published 2005).

Assays:
KIT(JMminus) = target: T1, KIT(JMminus) (Homo sapiens, UniProt P10721); test: Binding constant (Kd) measurement, phage-displayed kinase competition binding assay: KIT(JMminus)
T1 construct: KIT(JMminus); made in house
Text: (§1) The term “ND” represents non-determined values.

KIT(DKIN) = target: T2, KIT(DKIN) (Homo sapiens, UniProt P10721); test: Binding constant (Kd) measurement, phage-displayed kinase competition binding assay: KIT(DKIN)
T2 construct: KIT(DKIN); made in house
T2 sequence (P10721 589-937 limits assumed): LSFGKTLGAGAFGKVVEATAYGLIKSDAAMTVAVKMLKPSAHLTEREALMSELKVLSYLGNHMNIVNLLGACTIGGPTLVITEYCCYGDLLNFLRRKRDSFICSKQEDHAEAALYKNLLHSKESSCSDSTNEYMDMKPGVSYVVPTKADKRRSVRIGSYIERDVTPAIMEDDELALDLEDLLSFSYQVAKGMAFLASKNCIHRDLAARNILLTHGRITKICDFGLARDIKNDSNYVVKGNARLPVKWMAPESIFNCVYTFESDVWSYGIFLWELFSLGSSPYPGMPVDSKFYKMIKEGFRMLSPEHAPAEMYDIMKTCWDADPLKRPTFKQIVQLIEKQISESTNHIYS
Text: as §1

KIT(JMplus) = KIT(JMplus) (Homo sapiens, UniProt P10721); test: Binding constant (Kd) measurement, phage-displayed kinase competition binding assay: KIT(JMplus)
Sequence of KIT(JMplus) (P10721 546-976 limits assumed): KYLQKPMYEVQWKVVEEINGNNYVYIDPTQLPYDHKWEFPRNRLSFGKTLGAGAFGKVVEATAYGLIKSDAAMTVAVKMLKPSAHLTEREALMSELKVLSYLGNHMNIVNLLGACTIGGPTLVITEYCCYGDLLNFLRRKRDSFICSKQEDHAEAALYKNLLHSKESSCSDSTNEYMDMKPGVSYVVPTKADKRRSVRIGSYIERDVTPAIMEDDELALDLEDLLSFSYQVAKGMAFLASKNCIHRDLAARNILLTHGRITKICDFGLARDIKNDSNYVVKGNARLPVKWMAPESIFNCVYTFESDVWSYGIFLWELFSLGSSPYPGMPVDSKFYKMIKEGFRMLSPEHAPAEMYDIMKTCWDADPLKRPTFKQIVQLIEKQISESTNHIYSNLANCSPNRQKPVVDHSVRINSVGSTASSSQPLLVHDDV
Text: The components of the assays include human kinases expressed as fusions to T7 bacteriophage particles and immobilized ligands that bind to the ATP site of the kinases. […] If the test compound binds the kinase it competes with the immobilized ligand and prevents binding to the solid support. […] The results are read out by quantitating the amount of fusion protein bound to the solid support, which is accomplished by either traditional phage plaque assays or by quantitative PCR (qPCR) using the phage genome as a template.

KIT(JMminus,D816V) = target: T3, KIT(JMminus,D816V) (Homo sapiens, UniProt P10721, D816V); test: Binding constant (Kd) measurement, phage-displayed kinase competition binding assay: KIT(JMminus,D816V)
T3 construct: KIT(JMminus,D816V); made in house
T3 sequence (P10721 589-937 D816V limits assumed): as the sequence (P10721 589-937 limits assumed) above, with D228V counted along it
Text: as §1

MKNK2(DKIN) = target: T4, MKNK2(DKIN) (Homo sapiens, UniProt Q9HBH9); test: Binding constant (Kd) measurement, phage-displayed kinase competition binding assay: MKNK2(DKIN)
T4 construct: MKNK2(DKIN); made in house
T4 sequence (Q9HBH9 84-388 limits assumed): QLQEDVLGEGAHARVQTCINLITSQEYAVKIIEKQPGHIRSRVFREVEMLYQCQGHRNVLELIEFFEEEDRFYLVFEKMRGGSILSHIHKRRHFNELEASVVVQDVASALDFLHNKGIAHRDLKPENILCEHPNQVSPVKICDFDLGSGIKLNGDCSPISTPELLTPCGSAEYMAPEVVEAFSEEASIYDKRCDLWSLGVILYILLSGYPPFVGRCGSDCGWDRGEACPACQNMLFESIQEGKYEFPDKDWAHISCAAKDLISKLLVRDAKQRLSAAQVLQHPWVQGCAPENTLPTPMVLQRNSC
Text: as §1

CS0001 = test: Cell Assay: CS0001:IC50; type: cell-based
KIT(JMplus,V559D) = target: T5, KIT(JMplus,V559D) (Homo sapiens, UniProt P10721, V559D); test: Binding constant (Kd) measurement, phage-displayed kinase competition binding assay: KIT(JMplus,V559D)
T5 construct: KIT(JMplus); made in house
T5 sequence (P10721 546-976 V559D limits assumed): as the sequence (P10721 546-976 limits assumed) above, with V14D counted along it
Text: as §1

T1 sequence (P10721 589-937 limits assumed): as the sequence (P10721 589-937 limits assumed) above

SMILES	Kd (KIT(JMminus)) [µM]	Kd (KIT(DKIN)) [µM]	Kd (KIT(JMplus)) [µM]	Kd (KIT(JMminus,D816V)) [µM]	Kd (MKNK2(DKIN)) [µM]	IC50 (CS0001) [µM]	Kd (KIT(JMplus,V559D)) [µM]
CC(C)(C)c1cc(NC(=O)Nc2ccc(NC(=O)c3ncccc3O)cc2)no1 [Compound N134]	< 0.1	< 0.1	< 0.1	0.1 to 1			
CC(=O)Oc1cccnc1C(=O)Nc1ccc(NC(=O)Nc2cc(C(C)(C)C)on2)cc1 [Compound N79]	< 0.1			0.1 to 1			
CC(C)(C)c1cc(NC(=O)Nc2ccc(C(=O)Nc3nccnc3N)cc2)no1 [Compound N157]	< 0.1			1 to 10	0.1 to 1		
CC(C)(C)c1cnc(CSc2cnc(NC(=O)Nc3ccon3)s2)o1						< 0.1	
CC(C)(C)c1cc(NC(=O)Nc2ccc(NC(=O)c3cc4ccccc4[nH]3)cc2)no1 [Compound N161]	< 0.1			1 to 10			
Cc1ccc2[nH]c(C(=O)Nc3ccc(NC(=O)Nc4cc(C(C)(C)C)on4)cc3)cc2c1 [Compound N127]	< 0.1			1 to 10			
CC(C)(C)c1cc(NC(=O)Nc2ccc(C(=O)/C=C/c3ccncc3)cc2)no1						0.1 to 1	
COc1cc2ncnc(Nc3ccc(NC(=O)Nc4cc(C(C)(C)C)on4)cc3)c2cc1OC [Compound O5]	< 0.1			< 0.1			< 0.1
CC(C)(C)c1cc(NC(=O)Nc2ccc(NC(=O)c3cccc(Cl)n3)cc2)no1 [Compound N4]	< 0.1	< 0.1					
Cc1cccnc1C(=O)Nc1ccc(NC(=O)Nc2cc(C(C)(C)C)on2)cc1 [Compound N41]	< 0.1	< 0.1					
Cc1cnc(C(=O)Nc2ccc(NC(=O)Nc3cc(C(C)(C)C)on3)cc2)cn1 [Compound O2]	< 0.1	< 0.1					
CC(C)(C)c1cc(NC(=O)Nc2ccc(N3C(=O)c4ccccc4C3=O)cc2)no1 [Compound A57]	< 0.1			1 to 10			
C=N/C(=N\C)Oc1cccc(C(=O)Nc2ccc(NC(=O)Nc3cc(C(C)(C)C)on3)cc2)c1 [Compound N74]	< 0.1			0.1 to 1	0.1 to 1		
COc1cc2nc(Cl)nc(Nc3ccc(NC(=O)Nc4cc(C(C)(C)C)on4)cc3)c2cc1OC [Compound O1, 1-(4-(2-chloro-6,7-dimethoxyquinazolin-4-ylamino)phenyl)-3-(5-tert-butylisoxazol-3-yl)urea]	< 0.1	0.1 to 1		1 to 10			< 0.1
CC(C)(C)c1cc(NC(=O)Nc2ccc(NC(=O)c3cn4nc(Cl)ccc4n3)cc2)no1 [Compound N9]	< 0.1	< 0.1					
CC(C)(C)c1cc(NC(=O)Nc2ccc(OCC3CC3)cc2)no1 [Compound G37]	< 0.1	< 0.1		1 to 10	0.1 to 1		
CC(C)(C)c1cc(NC(=O)Nc2ccc(NC(=O)c3ccccn3)cc2)no1 [Compound N188]	< 0.1	< 0.1	< 0.1	0.1 to 1			
CC(C)(C)c1cc(NC(=O)Nc2ccc(OCc3ccccc3F)cc2)no1 [Compound G12, 1-(4-(2-fluorobenzyloxy)phenyl)-3-(5-tert-butylisoxazol-3-yl)urea]	< 0.1	0.1 to 1		1 to 10			
CC(C)(C)c1cc(NC(=O)Nc2ccc(Nc3ncnc4[nH]cnc34)cc2)no1 [Compound O3]		< 0.1		< 0.1			
Cc1[nH]c(C(=O)Nc2ccc(NC(=O)Nc3cc(C(C)(C)C)on3)cc2)c(C)c1CCC(=O)O [Compound N39]		< 0.1		0.1 to 1			
CC(C)(C)c1cc(NC(=O)Nc2ccc(Nc3nc(Cl)nc4[nH]cnc34)cc2)no1 [Compound O4]	< 0.1	< 0.1					
CC(C)(C)c1cc(NC(=O)Nc2ccc(NC(=O)c3ccc4ccccc4n3)cc2)no1 [Compound N143]	< 0.1	< 0.1					
